From patent US12180172B1, “[3-(4-Methoxyphenyl)-1,2,4-oxadiazol-5-yl]methanol as an antitumor and antimicrobial compound” (KING FAISAL UNIVERSITY, priority 2023, dated 2024)

What was measured:
Format in all cases: cell-based
[1] = system: human prostate cancer cells (PC3); assay: Cytotoxicity by SRB assay, PC3; conditions: 0.01 μM to 100 μM for 72 h
Description: (§1) The human prostate cancer cells (PC3) and human osteosarcoma cells (MG-63) were obtained from Nawah Scientific Inc. (Mokatam, Cairo, Egypt) and cultured in DMEM (Dulbecco's modified eagle's medium), Gibco, USA, supplemented with fetal bovine serum (FBS) at a concentration of 10% and 100 U/mL of penicillin and streptomycin (PS). The Cells were incubated at 37° C. in a humidified environment that contained 5% CO2. Cells were seeded in 96-well plates as aliquots of 100 μL cell suspension and incubated in a complete media for 24 h. afterward, cells were treated with [3-(4-methoxyphenyl)-1,2,4-oxadiazol-5-yl]methanol at diverse concentrations ranging from 0.01 μM to 100 μM for 72 h. Then, cells were fixed at 4° C. for one hour with 150 μL of 10% trichloroacetic acid (TCA). After washing the cells five times with distilled water, 70 μL of sulforhodamine (SRB) solution (0.4% w/v) was added and incubated for 10 min at room temperature in a dark place. […] Then, 150 μL of Tris pH 10.5 (10 mM) was added, and the absorbance was measured at 540 nm using a BMG LABTECH®-FLUOstar Omega microplate reader (Ortenberg, Germany). Half maximal inhibitory concentrations (IC50) values were calculated for each experiment using GraphPad Prism 6 software. […] The inhibition was calculated using the following equation: Inhibition %=100−Average Viability

[2] = system: human osteosarcoma cells (MG-63); assay: Cytotoxicity by SRB assay, MG-63; conditions: MG-63 cells, 0.01 μM to 100 μM for 72 h
Description: as §1

Bacillus cereus = assay: Agar plate disc-diffusion, Bacillus cereus; conditions: gram positive; disc 10 μL of 10 mg/mL in DMSO, 37° C., 48 h
Description: (§2) The antimicrobial properties of the synthesized compounds were studied by the method of agar plate disc-diffusion. Sterilized filter papers (6 mm in diameter) were wetted with 10 μL of a solution of each compound to be tested, containing 10 mg/mL in DMSO, and the discs were allowed to air dry. The discs were then placed onto the surface of agar plates (nutrient agar for bacteria and Sabouraud's dextrose agar for fungi) seeded with the test organism. Each plate contained 15 mL of the agar medium, previously seeded with 0.2 mL of the broth culture of each organism pregrown for 18 h. The plates were incubated at 37° C. for 48 h, and 72 h for fungi. The inhibition zones were measured in mm. Discs impregnated with DMSO were used as a control, and its inhibition zone was subtracted from the tested compound actual inhibition zone.

Staphylococcus aureus = assay: Agar plate disc-diffusion, Staphylococcus aureus; conditions: gram positive; disc 10 μL of 10 mg/mL in DMSO, 37° C., 48 h
Description: as §2

Pseudomonas aeruginosa = assay: Agar plate disc-diffusion, Pseudomonas aeruginosa; conditions: gram-negative; disc 10 μL of 10 mg/mL in DMSO, 37° C., 48 h
Description: as §2

Escherichia coli = assay: Agar plate disc-diffusion, Escherichia coli; conditions: gram-negative; disc 10 μL of 10 mg/mL in DMSO, 37° C., 48 h
Description: as §2

Aspergillus flavus = assay: Agar plate disc-diffusion, Aspergillus flavus; conditions: fungus; disc 10 μL of 10 mg/mL in DMSO, 72 h
Description: as §2

[3] = system: Chrysosporium keratinophilum; assay: Agar plate disc-diffusion, Chrysosporium keratinophilum; conditions: fungus; disc 10 μL of 10 mg/mL in DMSO, 72 h
Description: as §2

SMILES: COc1ccc(-c2noc(CO)n2)cc1 [[3-(4-methoxyphenyl)-1,2,4-oxadiazol-5-yl]methanol]
- antiproliferative activity [1]: excellent antiproliferative activities
- antiproliferative activity [2]: excellent antiproliferative activities
- antibacterial activity (Bacillus cereus): high antimicrobial activities
- antibacterial activity (Staphylococcus aureus): high antimicrobial activities
- antibacterial activity (Pseudomonas aeruginosa): high antimicrobial activities
- antibacterial activity (Escherichia coli): high antimicrobial activities
- antifungal activity (Aspergillus flavus): high antimicrobial activities
- antifungal activity [3]: high antimicrobial activities
